Data from ChEMBL document CHEMBL1142058, “Amorphane sesquiterpenes from a marine Streptomyces sp” (J Nat Prod, 2007).
Activity calls are given as the source filed them.

Experiments:
Type in all cases: functional, organism-based
Bacillus subtilis = assay: Antibacterial activity against Bacillus subtilis at 80 ug/disk
[1] = tested on: Streptomyces viridochromogenes; assay: Antibacterial activity against Streptomyces viridochromogenes Tu 57 at 80 ug/disk
Escherichia coli = assay: Antibacterial activity against Escherichia coli at 80 ug/disk
Staphylococcus aureus = assay: Antibacterial activity against Staphylococcus aureus at 80 ug/disk
Chlorella vulgaris = assay: Antimicrobial activity against Chlorella vulgaris at 80 ug/disk
Chlorella sorokiniana = assay: Antimicrobial activity against Chlorella sorokiniana at 80 ug/disk
Rhizomucor miehei = assay: Antifungal activity against Mucor miehei at 80 ug/disk
Candida albicans = assay: Antifungal activity against Candida albicans at 80 ug/disk
Artemia = assay: Activity against brine shrimp at 10 ug/mL
Desmodesmus subspicatus = assay: Antimicrobial activity against Scenedesmus subspicatus at 80 ug/disk

Measured: Activity

C[C@H]1C(=O)C[C@H]2[C@@H](C1O)[C@@H](C(C)(C)O)CC[C@@]2(C)O (stereo not given in full)
inactive: Bacillus subtilis | [1] | Escherichia coli | Staphylococcus aureus | Chlorella vulgaris | Chlorella sorokiniana | Rhizomucor miehei | Candida albicans | Artemia | Desmodesmus subspicatus

CC(C)[C@H]1CC[C@@](C)(O)[C@H]2CC(=O)C(CO)=C[C@@H]12
inactive: Bacillus subtilis | [1] | Escherichia coli | Staphylococcus aureus | Chlorella vulgaris | Chlorella sorokiniana | Rhizomucor miehei | Candida albicans | Artemia | Desmodesmus subspicatus

CC1=C[C@H]2[C@@H](C(C)C)CC[C@@](C)(O)[C@H]2CC1=O
inactive: Bacillus subtilis | [1] | Escherichia coli | Staphylococcus aureus | Chlorella vulgaris | Chlorella sorokiniana | Rhizomucor miehei | Candida albicans | Artemia | Desmodesmus subspicatus

CC1=C[C@H]2[C@@H](C(C)(C)O)CC[C@@](C)(O)[C@H]2CC1
inactive: Bacillus subtilis | [1] | Escherichia coli | Staphylococcus aureus | Chlorella vulgaris | Chlorella sorokiniana | Rhizomucor miehei | Candida albicans | Artemia | Desmodesmus subspicatus
